Measured values published in ChEMBL document CHEMBL1138190, “Synthesis and antibacterial activity of novel C12 vinyl ketolides” (J Med Chem, 2006).
Values after ≈ are worked out from the molar mass of the structure shown. Active and inactive are the calls of the source. The calls are words filed in the database; no cut-off is given here.

Key:
Streptococcus pneumoniae [1] = assay: Antibacterial activity against Streptococcus pneumoniae Erm 10279; format: functional
Streptococcus pneumoniae [2] = assay: Antibacterial activity against Streptococcus pneumoniae Mef 1566; format: functional
Streptococcus pneumoniae [3] = assay: Antibacterial activity against Streptococcus pneumoniae Mef 10095; format: functional
Streptococcus pneumoniae [4] = assay: Antibacterial activity against Streptococcus pneumoniae Mef 9142; format: functional
Streptococcus pneumoniae [5] = assay: Antibacterial activity against Streptococcus pneumoniae Mef 4331; format: functional
Streptococcus pneumoniae [6] = assay: Antibacterial activity against Streptococcus pneumoniae Erm 5399; format: functional
Streptococcus pneumoniae [7] = assay: Antibacterial activity against Streptococcus pneumoniae Mef 3855; format: functional
Streptococcus pneumoniae [8] = assay: Antibacterial activity against Streptococcus pneumoniae Erm 6396; format: functional
Streptococcus pneumoniae [9] = assay: Antibacterial activity against Streptococcus pneumoniae Mef 5654; format: functional
Streptococcus pneumoniae [10] = assay: Antibacterial activity against Streptococcus pneumoniae Erm 5354; format: functional
Enterococcus faecalis [11] = assay: Antibacterial activity against Enterococcus faecalis 29212; format: functional
Streptococcus pneumoniae [12] = assay: Antibacterial activity against Streptococcus pneumoniae Mef 983; format: functional
Streptococcus pneumoniae [13] = assay: Antibacterial activity against Streptococcus pneumoniae 280-962; format: functional
[14] = Plasma half life in Sprague-Dawley rat at 15 mg/kg, po; format: ADME, organism-based; design: dose 15 mg/kg, route oral
[15] = system: Staphylococcus epidermidis; assay: Antibacterial activity against Staphylococcus epidermidis f50654; format: functional
Streptococcus pneumoniae [16] = assay: Antibacterial activity against Streptococcus pneumoniae Mef 5649; format: functional
Streptococcus pneumoniae [17] = assay: Antibacterial activity against Streptococcus pneumoniae Erm 4290; format: functional
Streptococcus pneumoniae [18] = assay: Antibacterial activity against Streptococcus pneumoniae 49619; format: functional
[19] = system: Staphylococcus epidermidis; assay: Antibacterial activity against Staphylococcus epidermidis 14990; format: functional
Streptococcus pyogenes = assay: Antibacterial activity against Streptococcus pyogenes 8668; format: functional
Streptococcus pneumoniae [20] = assay: Antibacterial activity against Streptococcus pneumoniae Erm 8339; format: functional
Haemophilus influenzae [21] = assay: Antibacterial activity against Haemophilus influenzae 2762; format: functional
Streptococcus pneumoniae [22] = assay: Antibacterial activity against Streptococcus pneumoniae Mef 41; format: functional
Streptococcus pneumoniae [23] = assay: Antibacterial activity against Streptococcus pneumoniae Mef S 3427; format: functional
Streptococcus pneumoniae [24] = assay: Antibacterial activity against Streptococcus pneumoniae Erm 3120; format: functional
Streptococcus pneumoniae [25] = assay: Antibacterial activity against Streptococcus pneumoniae Erm S 4085; format: functional
Streptococcus pneumoniae [26] = assay: Antibacterial activity against Streptococcus pneumoniae Erm 2218; format: functional
[27] = Volume of distribution in Sprague-Dawley rat at 5 mg/kg, iv and 15 mg/kg, po; format: ADME, organism-based; settings: in vivo, read-out: Vdss
Streptococcus pneumoniae [28] = assay: Antibacterial activity against Streptococcus pneumoniae Mef 3449; format: functional
Streptococcus pneumoniae [29] = assay: Antibacterial activity against Streptococcus pneumoniae Mef 1790; format: functional
Streptococcus pneumoniae [30] = assay: Antibacterial activity against Streptococcus pneumoniae Mef 2880; format: functional
Rattus norvegicus [31] = assay: Plasma AUC in Sprague-Dawley rat at 5 mg/kg, iv; format: ADME, organism-based; design: dose 5 mg/kg, route intravenous; settings: in vivo
Streptococcus pneumoniae [32] = assay: Antibacterial activity against Streptococcus pneumoniae Mef 953; format: functional
Staphylococcus aureus [33] = assay: Antibacterial activity against Staphylococcus aureus 29213; format: functional
Streptococcus pneumoniae [34] = assay: Antibacterial activity against Streptococcus pneumoniae Erm 6849; format: functional
Streptococcus pneumoniae [35] = assay: Antibacterial activity against Streptococcus pneumoniae Erm 4589; format: functional
Streptococcus pneumoniae [36] = assay: Antibacterial activity against Streptococcus pneumoniae Erm 8919; format: functional
Streptococcus pneumoniae [37] = assay: Antibacterial activity against Streptococcus pneumoniae Erm 5554; format: functional
Streptococcus pneumoniae [38] = assay: Antibacterial activity against Streptococcus pneumoniae Erm S 4297; format: functional
Streptococcus pneumoniae [39] = assay: Antibacterial activity against Streptococcus pneumoniae Mef S 3435; format: functional
Streptococcus pneumoniae [40] = assay: Antibacterial activity against Streptococcus pneumoniae Mef 2382; format: functional
Streptococcus pneumoniae [41] = assay: Antibacterial activity against Streptococcus pneumoniae Mef 9959; format: functional
Streptococcus pneumoniae [42] = assay: Antibacterial activity against Streptococcus pneumoniae Mef 6966; format: functional
Streptococcus pneumoniae [43] = assay: Antibacterial activity against Streptococcus pneumoniae 297-749; format: functional
Streptococcus pneumoniae [44] = assay: Antibacterial activity against Streptococcus pneumoniae Erm 8947; format: functional
[45] = Lung half life in Sprague-Dawley rat at 15 mg/kg, po; format: ADME, organism-based; design: dose 15 mg/kg, route oral
[46] = Oral bioavailability in Sprague-Dawley rat at 15 mg/kg, po; format: ADME, organism-based; settings: in vivo
Streptococcus pneumoniae [47] = assay: Antibacterial activity against Streptococcus pneumoniae Erm 8257; format: functional
Streptococcus pneumoniae [48] = assay: Antibacterial activity against Streptococcus pneumoniae Erm 867; format: functional
Enterococcus faecalis [49] = assay: Antibacterial activity against Enterococcus faecalis bc11148-2; format: functional
Streptococcus pneumoniae [50] = assay: Antibacterial activity against Streptococcus pneumoniae Erm 6388; format: functional
Streptococcus pneumoniae [51] = assay: Antibacterial activity against Streptococcus pneumoniae Erm 5590; format: functional
Streptococcus pneumoniae [52] = assay: Antibacterial activity against Streptococcus pneumoniae Erm 7985; format: functional
Streptococcus pneumoniae [53] = assay: Antibacterial activity against Streptococcus pneumoniae Erm 5415; format: functional
Streptococcus pneumoniae [54] = assay: Antibacterial activity against Streptococcus pneumoniae Mef 1556; format: functional
[55] = Plasma half life in Sprague-Dawley rat at 5 mg/kg, iv; format: ADME, organism-based; design: dose 5 mg/kg, route intravenous
Rattus norvegicus [56] = assay: Efficacy against Streptococcus pneumoniae Erm in Sprague-Dawley rat lung infection model at 50 mg/kg; format: functional, organism-based; design: dose 50 mg/kg
Streptococcus pneumoniae [57] = assay: Antibacterial activity against Streptococcus pneumoniae Mef 4126; format: functional
Rattus norvegicus [58] = assay: Efficacy against Haemophilus influenzae in Sprague-Dawley rat lung infection model at 50 mg/kg; format: functional, organism-based; design: dose 50 mg/kg
Staphylococcus aureus [59] = assay: Antibacterial activity against Staphylococcus aureus 33591; format: functional
Haemophilus influenzae [60] = assay: Antibacterial activity against Haemophilus influenzae 49247; format: functional
[61] = Lung-to-plasma AUC ratio in Sprague-Dawley rat at 5 mg/kg, iv; format: ADME, organism-based; design: dose 5 mg/kg, route intravenous; settings: lung and plasma

- MIC (Streptococcus pneumoniae [1]): 0.025 µg/mL (≈ 0.0298 µM)
- MIC (Streptococcus pneumoniae [2]): 0.4 µg/mL (≈ 0.477 µM)
- MIC (Streptococcus pneumoniae [3]): ≤ 0.05 µg/mL
- MIC (Streptococcus pneumoniae [4]): 0.4 µg/mL (≈ 0.477 µM)
- MIC (Streptococcus pneumoniae [5]): 0.4 µg/mL (≈ 0.477 µM)
- MIC (Streptococcus pneumoniae [6]): 0.025 µg/mL (≈ 0.0298 µM)
- MIC (Streptococcus pneumoniae [7]): 0.2 µg/mL (≈ 0.239 µM)
- MIC (Streptococcus pneumoniae [8]): 0.1 µg/mL (≈ 0.119 µM)
- MIC (Streptococcus pneumoniae [9]): 0.4 µg/mL (≈ 0.477 µM)
- MIC (Streptococcus pneumoniae [10]): 0.025 µg/mL (≈ 0.0298 µM)
- MIC (Enterococcus faecalis [11]): 0.1 µg/mL (≈ 0.119 µM)
- MIC (Streptococcus pneumoniae [12]): 0.4 µg/mL (≈ 0.477 µM)
- MIC (Streptococcus pneumoniae [13]): ≤ 0.05 µg/mL
- half-life [14]: 2.4 h
- MIC [15]: 0.2 µg/mL (≈ 0.239 µM)
- MIC (Streptococcus pneumoniae [16]): 0.2 µg/mL (≈ 0.239 µM)
- MIC (Streptococcus pneumoniae [17]): 0.05 µg/mL (≈ 0.0597 µM)
- MIC (Streptococcus pneumoniae [18]): ≤ 0.05 µg/mL
- MIC [19]: 0.2 µg/mL (≈ 0.239 µM)
- MIC (Streptococcus pyogenes): ≤ 0.05 µg/mL
- MIC (Streptococcus pneumoniae [20]): 1.56 µg/mL (≈ 1.86 µM)
- MIC (Haemophilus influenzae [21]): 1.56 µg/mL (≈ 1.86 µM)
- MIC (Streptococcus pneumoniae [22]): 0.1 µg/mL (≈ 0.119 µM)
- MIC (Streptococcus pneumoniae [23]): 0.2 µg/mL (≈ 0.239 µM)
- MIC (Streptococcus pneumoniae [24]): 0.2 µg/mL (≈ 0.239 µM)
- MIC (Streptococcus pneumoniae [25]): 0.025 µg/mL (≈ 0.0298 µM)
- MIC (Streptococcus pneumoniae [26]): 0.1 µg/mL (≈ 0.119 µM)
- Vd [27]: 14 L/kg
- MIC (Streptococcus pneumoniae [28]): 0.2 µg/mL (≈ 0.239 µM)
- MIC (Streptococcus pneumoniae [29]): 0.2 µg/mL (≈ 0.239 µM)
- MIC (Streptococcus pneumoniae [30]): 0.2 µg/mL (≈ 0.239 µM)
- AUC (Rattus norvegicus [31]): 2100 ng·h/mL
- MIC (Streptococcus pneumoniae [32]): 0.1 µg/mL (≈ 0.119 µM)
- MIC (Staphylococcus aureus [33]): 0.2 µg/mL (≈ 0.239 µM)
- MIC (Streptococcus pneumoniae [34]): 0.1 µg/mL (≈ 0.119 µM)
- MIC (Streptococcus pneumoniae [35]): 0.025 µg/mL (≈ 0.0298 µM)
- MIC (Streptococcus pneumoniae [36]): 0.025 µg/mL (≈ 0.0298 µM)
- MIC (Streptococcus pneumoniae [37]): 0.78 µg/mL (≈ 0.931 µM)
- MIC (Streptococcus pneumoniae [38]): 0.025 µg/mL (≈ 0.0298 µM)
- MIC (Streptococcus pneumoniae [39]): <=0.05 ug ml-1
- MIC (Streptococcus pneumoniae [40]): 0.1 µg/mL (≈ 0.119 µM)
- MIC (Streptococcus pneumoniae [41]): 0.2 µg/mL (≈ 0.239 µM)
- MIC (Streptococcus pneumoniae [42]): 0.2 µg/mL (≈ 0.239 µM)
- MIC (Streptococcus pneumoniae [43]): ≤ 0.05 µg/mL
- MIC (Streptococcus pneumoniae [44]): 0.4 µg/mL (≈ 0.477 µM)
- half-life [45]: 3.4 h
- bioavailability [46]: 35%
- MIC (Streptococcus pneumoniae [47]): ≤ 0.013 µg/mL
- MIC (Streptococcus pneumoniae [48]): 0.025 µg/mL (≈ 0.0298 µM)
- MIC (Enterococcus faecalis [49]): 0.78 µg/mL (≈ 0.931 µM)
- MIC (Streptococcus pneumoniae [50]): 3.13 µg/mL (≈ 3.73 µM)
- MIC (Streptococcus pneumoniae [51]): 0.025 µg/mL (≈ 0.0298 µM)
- MIC (Streptococcus pneumoniae [52]): ≤ 0.013 µg/mL
- MIC (Streptococcus pneumoniae [53]): 0.025 µg/mL (≈ 0.0298 µM)
- MIC (Streptococcus pneumoniae [54]): ≤ 0.05 µg/mL
- half-life [55]: 1.6 h
- MIC (Streptococcus pneumoniae [57]): ≤ 0.05 µg/mL
- MIC (Staphylococcus aureus [59]): > 50 µg/mL
- MIC (Haemophilus influenzae [60]): 3.13 µg/mL (≈ 3.73 µM)
- Kp [61]: 80
SMILES: C=C[C@]12OC(=O)N(CCCCn3cnc(-c4ccc(C)nc4)c3)[C@@H]1[C@@H](C)C(=O)[C@H](C)C[C@@](C)(OC)[C@H](O[C@@H]1O[C@H](C)C[C@H](N(C)C)[C@H]1O)[C@@H](C)C(=O)[C@@H](C)C(=O)O[C@@H]2CC
- Activity (Rattus norvegicus [56]): Active
- Activity (Rattus norvegicus [58]): Active
